Assay results reported in patent US20250325688A1, “ANTIBODY-DRUG CONJUGATE CONTAINING PROTEIN DEGRADATION AGENT BIOACTIVE COMPOUND, METHOD FOR PREPARING SAME, AND USE THEREOF” (Medilink Therapeutics (Suzhou) Co., Ltd., priority 2022, published 2025).
Read-outs that look alike come from different tables or passages of the source. Each block holds one molecule with its values, some of them ahead of it.

How the values were obtained:
[1] = tested on: N87 cells; assay: Inhibitory activity of payloads on cell proliferation (Cell titer glo); format: cell-based; details: for EC50: 4 days culture
Method: (§1) The cells were incubated in an incubator at 37° C. overnight. The payload to be tested was dissolved in DMSO, and the resulting solution was aliquoted and cryopreserved at −80° C. The next day, the payload to be tested was subjected to 4-fold dilution to a maximum concentration of 10000 nM for 10 points using the respective complete medium. 100 µL of the diluted drug was added to the cell culture wells (2 replicates per well). After the cells were cultured at 37° C. for 4 days, 50 μL of Cell titer glo substrate was added to each well. After the cells were incubated for 5 min, the fluorescence values were measured.

[2] = tested on: MCF7 cells; assay: as above; format: cell-based; details: for EC50: 4 days culture
Method: as §1

[3] = tested on: NUGC4 cells; assay: as above; format: cell-based; details: for EC50: 4 days culture
Method: as §1

[4] = tested on: IKZF1/3; details: clinical results shown at AACR April 2022; cited from earlier work
[5] = target: T1, human B7H3-4IgG-his (human) (UniProt Q5ZPR3); assay: ELISA, coated human B7H3-4IgG-his, anti-human Fc-HRP detection
T1 sequence: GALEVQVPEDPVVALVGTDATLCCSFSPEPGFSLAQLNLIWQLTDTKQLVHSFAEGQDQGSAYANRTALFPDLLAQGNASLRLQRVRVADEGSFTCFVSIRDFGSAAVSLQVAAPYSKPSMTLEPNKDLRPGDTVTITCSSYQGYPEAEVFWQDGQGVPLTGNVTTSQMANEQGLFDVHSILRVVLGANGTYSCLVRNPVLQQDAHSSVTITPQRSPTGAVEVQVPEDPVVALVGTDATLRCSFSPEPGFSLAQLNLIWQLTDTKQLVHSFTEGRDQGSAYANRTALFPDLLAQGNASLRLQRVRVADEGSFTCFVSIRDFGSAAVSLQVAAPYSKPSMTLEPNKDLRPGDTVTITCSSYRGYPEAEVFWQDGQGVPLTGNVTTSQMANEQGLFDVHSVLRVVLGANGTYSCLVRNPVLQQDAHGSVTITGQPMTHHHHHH

[6] = target: T2, B7H3 on tumor cells (MCF-7, A549, PC-3) (human) (UniProt Q5ZPR3); assay: flow cytometry on MCF-7 tumor cells
T2 sequence (looked up): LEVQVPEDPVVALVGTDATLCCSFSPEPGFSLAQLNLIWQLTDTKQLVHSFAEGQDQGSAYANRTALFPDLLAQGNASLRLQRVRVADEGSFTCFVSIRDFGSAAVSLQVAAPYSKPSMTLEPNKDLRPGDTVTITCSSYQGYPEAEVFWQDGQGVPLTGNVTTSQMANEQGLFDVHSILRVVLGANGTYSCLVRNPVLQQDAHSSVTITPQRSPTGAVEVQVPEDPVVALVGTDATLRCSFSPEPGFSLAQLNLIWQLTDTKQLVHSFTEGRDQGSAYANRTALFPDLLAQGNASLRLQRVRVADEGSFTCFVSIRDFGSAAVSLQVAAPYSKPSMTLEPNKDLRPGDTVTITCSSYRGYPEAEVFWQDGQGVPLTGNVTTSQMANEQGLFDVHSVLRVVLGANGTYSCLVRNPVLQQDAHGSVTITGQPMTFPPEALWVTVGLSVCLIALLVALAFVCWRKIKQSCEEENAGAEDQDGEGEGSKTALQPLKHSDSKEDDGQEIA

[7] = target: T2, B7H3 on tumor cells (MCF-7, A549, PC-3) (human); assay: flow cytometry on A549 tumor cells
[8] = target: T2, B7H3 on tumor cells (MCF-7, A549, PC-3) (human); assay: flow cytometry on PC-3 tumor cells
[9] = target: T2, B7H3 on tumor cells (MCF-7, A549, PC-3) (human); assay: flow cytometry on MCF-7 tumor cells; remark: listed apart in the source
[10] = target: monkey B7H3-4IgG-his (monkey); assay: ELISA, coated monkey B7H3-4IgG-his, anti-human Fc-HRP detection
[11] = target: monkey B7H3-4IgG-his (monkey); assay: as above; remark: listed apart in the source
[12] = target: T2, B7H3 on tumor cells (MCF-7, A549, PC-3) (human); assay: flow cytometry on A549 tumor cells; remark: listed apart in the source
[13] = target: T1, human B7H3-4IgG-his (human); assay: ELISA, coated human B7H3-4IgG-his, anti-human Fc-HRP detection; remark: listed apart in the source

EC50 ([2]; Homo sapiens, MCF7, 96 h): 228 nM
Molecule: CN(CCCc1ccc(NC(=O)NCc2ccc3c(c2)CN(C2CCC(=O)NC2=O)C3=O)cc1)C(=O)CO (stereo not drawn) [PL-5, N-(3-(4-(3-(2-(2,6-dioxopiperidin-3-yl)-1-oxoisoindolin-5-methyl)ureido)phenyl)propyl)-2-hydroxy-N-methylacetamide]
EC50 ([3]; Homo sapiens, NUGC-4, 96 h): 502 nM
EC50 ([1]; 96 h): 1590 nM

EC50 ([2]; Homo sapiens, MCF7, 96 h): 983 nM
Molecule: CNCCOCCc1ccc(NC(=O)NCc2ccc3c(c2)CN(C2CCC(=O)NC2=O)C3=O)cc1Cl (stereo not drawn) [Control compound 1]
EC50 ([3]; Homo sapiens, NUGC-4, 96 h): 345 nM
EC50 ([1]; 96 h): 572 nM

EC50 ([2]; Homo sapiens, MCF7, 96 h): 62.1 nM
Molecule: CN(CCCc1ccc(NC(=O)NCc2ccc3c(c2)CN(C2CCC(=O)NC2=O)C3=O)cc1Cl)C(=O)CO (stereo not drawn) [PL-1, N-(3-(2-chloro-4-(3-((2-(2,6-dioxopiperidin-3-yl)-1-oxoisoindolin-5-yl)methyl)ureido)phenyl)propyl)-2-hydroxy-N-methylacetamide]
inhibitory activity on the proliferation of MCF7 cells (in words) [2]: significantly superior to that of control compound 1
inhibitory activity on the proliferation of N87 cells (in words) [1]: significantly superior to that of control compound 1
EC50 ([1]; 96 h): 14.3 nM

Continued, molecule first:

Molecule: CN(CCCc1ccc(C(F)(F)C(=O)NCc2ccc3c(c2)CN(C2CCC(=O)NC2=O)C3=O)cc1Cl)C(=O)CO (stereo not drawn) [PL-2]
EC50 ([1]; 96 h): 193 nM

Molecule: CN(CCCc1ccc(NC(=O)NCc2ccc3c(c2)C(=O)N(C2CCC(=O)NC2=O)C3=O)cc1Cl)C(=O)CO (stereo not drawn) [PL-3, N-(3-(2-chloro-4-(3-((2-(2,6-dioxopiperidin-3-yl)-1,3-dioxoisoindol-5-yl)methyl)ureido)phenyl)propyl)-2-hydroxy-N-methylacetamide]
EC50 ([1]; 96 h): 851 nM

Molecule: O=C1CC[C@H](N2C(=O)c3cccc4c(Cc5ccc(CN6CCOCC6)cc5)ccc2c34)C(=O)N1 [CFT7455]
dose-limiting toxicity in the clinic [4]: decreased neutrophil was dose-limiting

Molecule: CN(CCOCCc1ccc(NC(=O)NCc2ccc3c(c2)CN(C2CCC(=O)NC2=O)C3=O)cc1Cl)C(=O)CO (stereo not drawn) [PL-4, N-(2-chloro-4-(3-(2-(2,6-dioxopiperidin-3-yl)-1-oxoisoindolin-5-methyl)ureido)phenethoxy)ethyl-2-hydroxy-N-methylacetamide]
inhibitory activity on the proliferation of MCF7 cells (in words) [2]: significantly superior to that of control compound 1
EC50 [2]: 44.7 nM
inhibitory activity on the proliferation of NUGC4 cells (in words) [3]: significantly superior to that of control compound 1
EC50 [3]: 43.2 nM
inhibitory activity on the proliferation of N87 cells (in words) [1]: significantly superior to that of control compound 1
EC50 [1]: 36.1 nM

B1: B7H3-C1 antibody (antibody, INN chains, looked up, V domains shown)
VH: QVQLVQSGAEVKKPGSSVKVSCKASGYTFTNYVMHWVRQAPGQGLEWMGYINPYNDDVKYNEKFKGRVTITADESTSTAYMELSSLRSEDTAVYYCARWGYYGSPLYYFDYWGQGTLVTVSS
VL: EIVLTQSPATLSLSPGERATLSCRASSRLIYMHWYQQKPGQAPRPLIYATSNLASGIPARFSGSGSGTDFTLTISSLEPEDFAVYYCQQWNSNPPTFGQGTKVEIK
EC50 [5]: 0.048 nM
EC50 [6]: 1.71 nM
Maximum MFI [6]: 84000
EC50 [7]: 1.86 nM
Maximum MFI [7]: 8270
EC50 [8]: 0.618 nM
Maximum MFI [8]: 6440
EC50 [9]: 1.36 nM
Maximum MFI [9]: 63200
EC50 [10]: 3.92 nM
EC50 [11]: 0.167 nM
EC50 [12]: 1.05 nM
Maximum MFI [12]: 48000
EC50 [13]: 0.0519 nM
